Laboratory results published in patent US5677459A, “Methods for the preparation of modulators of acetylcholine receptors” (Sibia Neurosciences, Inc., priority 1995, dated 1997).
Where two headings read alike, the source gives them in different places.

Legend:
rats = assay: Locomotor activity assay; format: in vivo, rat (male Sprague-Dawley); conditions: Rattus norvegicus, sc, 20 mg/kg, s.c.
[1] = system: ^3 H-Dopamine release, rat striatal slices; assay: Ligand-stimulated ^3 H-dopamine release from rat striatal slices; format: cell-based; conditions: in vitro slices, 300 μM
[2] = target: T1, nicotinic acetylcholine receptor (Rattus norvegicus, UniProt P09483+P12390); assay: ^3 H-Nicotine binding/displacement, rat cerebral membranes
T1 construct: the brains removed and the cerebral cortex dissected on ice; from tissue; host or cells: cerebral cortex synaptic membranes of male Sprague-Dawley rats
T1 sequence (P09483 31-630): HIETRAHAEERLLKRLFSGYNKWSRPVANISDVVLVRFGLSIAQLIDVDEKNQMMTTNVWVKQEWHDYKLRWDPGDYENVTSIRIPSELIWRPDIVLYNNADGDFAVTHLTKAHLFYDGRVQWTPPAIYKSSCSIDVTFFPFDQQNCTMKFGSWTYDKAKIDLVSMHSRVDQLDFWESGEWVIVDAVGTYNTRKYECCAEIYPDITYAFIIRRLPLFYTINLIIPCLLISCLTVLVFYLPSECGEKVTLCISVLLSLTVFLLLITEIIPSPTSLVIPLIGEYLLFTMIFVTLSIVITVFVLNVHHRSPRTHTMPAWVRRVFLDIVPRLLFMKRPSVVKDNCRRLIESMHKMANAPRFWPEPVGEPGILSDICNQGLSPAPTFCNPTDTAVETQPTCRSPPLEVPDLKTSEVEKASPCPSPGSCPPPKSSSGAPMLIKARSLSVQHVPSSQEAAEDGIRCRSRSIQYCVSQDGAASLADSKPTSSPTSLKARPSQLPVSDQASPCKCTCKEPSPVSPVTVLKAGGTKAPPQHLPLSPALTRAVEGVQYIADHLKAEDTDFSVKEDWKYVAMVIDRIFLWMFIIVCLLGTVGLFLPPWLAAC
T1 sequence (P12390 25-500): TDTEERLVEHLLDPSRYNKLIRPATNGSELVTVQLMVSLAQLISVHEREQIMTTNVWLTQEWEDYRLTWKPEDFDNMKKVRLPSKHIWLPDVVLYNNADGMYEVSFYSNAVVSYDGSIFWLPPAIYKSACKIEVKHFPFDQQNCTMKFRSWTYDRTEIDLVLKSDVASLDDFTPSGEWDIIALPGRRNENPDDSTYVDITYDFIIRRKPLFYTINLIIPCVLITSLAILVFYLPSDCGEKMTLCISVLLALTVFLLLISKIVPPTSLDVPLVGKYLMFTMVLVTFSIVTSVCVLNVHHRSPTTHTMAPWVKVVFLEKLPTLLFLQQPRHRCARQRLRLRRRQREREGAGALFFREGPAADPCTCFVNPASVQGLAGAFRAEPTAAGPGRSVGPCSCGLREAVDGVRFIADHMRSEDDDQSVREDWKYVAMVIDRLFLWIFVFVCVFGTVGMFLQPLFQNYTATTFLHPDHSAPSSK
Protocol: ^3 H-Nicotine binding to rat cerebral membranes was performed according to modifications of the method of Flyn and Mash (J. Neurochem. 47:1948 (1986)). ^3 H-Nicotine (80 ci/mmol; New England Nuclear Corporation, Boston, Mass.) was used as the ligand for nicotinic acetylcholine receptor binding assays. All other reagents were purchased from the Sigma Chemical Co. (St. Louis, Mo.).
Male Sprague-Dawley rats (250-400 gm) were sacrificed by decapitation, the brains removed and the cerebral cortex dissected on ice. Synaptic membranes were prepared by homogenizing the cortical tissue in 20 volumes of ice-cold modified Tris buffer (50 mM Tris pH 7.4, 120 mM NaCl, 5 mM KCl, 2 mM EDTA, 1 mM PMSF) with a polytron (20 sec at setting 5-6) followed by centrifugation (15 min at 5,000×g) at 4° C. The resultant pellet was rehomogenized and centrifuged twice. The final pellet was resuspended in ice-cold assay buffer (50 mM Tris pH 7.4, 120 mM NaCl, 5 mM KCl, 2 mM CaCl2, 1 mM MgCl2) at a concentration of membrane equivalent to 1 gm wet weight cortex per 10 ml buffer. After protein determination the final membrane preparation was diluted with buffer to 3 mg protein/mi. This membrane preparation was used in either the fresh state or frozen (-70° C.) then thawed.
The binding assay is performed manually using 96-well plates, or using a Biomek automated work station (Beckman Instrument Co.). ^3 H-Nicotine was diluted in assay buffer to give a final concentration of 1.9 nM. The Biomek automated work station was programmed to automatically transfer 750 μl of assay buffer with ^3 H-nicotine, 230 μl of membrane preparation and 20 μl of solution containing the compound of interest in assay buffer, DMSO, ethanol:DMSO (1:1) or appropriate vehicle to the 96-well plate. Atropine was added to the incubation buffer at a final concentration of 3 μM to block binding to muscarinic acetylcholine receptor sites. The plates were maintained on ice for 60 min and the tissue-bound radioactivity was separated from the free by rapid filtration in a Brandel Harvester onto GF/C filters presoaked in 0.5% polyethyleneimine for at least 2 hr. The filters were washed with 4×2 ml of ice-cold assay buffer and filters were transferred to vials to which 4 ml of scintillation cocktail was added. The radioactivity was measured in a LS-6500 Beckman Liquid Scintillation Counter in an autodpm mode. Data were analyzed bylog-logit transformation or non-linear regression analysis (e.g., employing GraphPad Prism, available from GraphPad Software, San Diego, Calif.) to give IC50 values. Non-specific binding was defined by 10 μM cytisine.

[3] = 1 h, 0-60 min, read-out: Ambulation (cross overs), percent of change from control
[4] = 1 h, 0-60 min, read-out: General Activity (beam breaks), percent of change from control
[5] = 2 h, 60-120 min, read-out: General Activity (beam breaks), percent of change from control
[6] = 2 h, 60-120 min, read-out: Ambulation (cross overs), percent of change from control
[7] = ^3 H-nicotine 1.9 nM, rat cerebral membranes, read-out: IC50, Nicotine

Row | SMILES | change in vivo at 20 mg/kg (rats; [3]) [%] | change in vivo at 20 mg/kg (rats; [4]) [%] | change in vivo at 20 mg/kg (rats; [5]) [%] | percent fractional release, ^3 H-Dopamine, Striatum [1] [%] | IC50 ([2]; IC50, Nicotine) [µM] | change in vivo at 20 mg/kg (rats; [6]) [%] | IC50 [2, 7] [µM]
1 | C#Cc1cncc(C2CCCN2C)c1.O=C(O)/C=C/C(=O)O (racemic) [R^5 = ethynyl (racemic), 5-Ethynyl-3-(1-methyl-2-pyrrolidinyl)pyridine fumarate] | 631 | 509 | 628 | 2.56 | 0.0046 |  | 
2 | CN1CCCC1c1cncc(-c2ccc(O)c(Cl)c2)c1.O=C(O)/C=C/C(=O)O (centres unmarked) [R^5 = 3-chloro-4-hydroxyphenyl, 5-(4-hydroxy-3-chlorophenyl)-3-(1-methyl-2-pyrrolidinyl)pyridine fumarate] | 63 | 68 | -17 | 8.34 |  | -36 | 0.028
3 | CN1CCCC1c1cncc(-c2cccc(Cl)c2)c1.O=C(O)/C=C/C(=O)O (centres unmarked) [R^5 = 3-chlorophenyl, 5-(3-Chlorophenyl)-3-(1-methyl-2-pyrrolidinyl) pyridine fumarate] | 48 | 70 | 220 | 2.0 |  | 268 | 0.12
4 | COc1ccc(-c2cncc(C3CCCN3C)c2)cc1F.O=C(O)/C=C/C(=O)O (centres unmarked) [R^5 = 3-fluoro-4-methoxyphenyl, 5-(3-Fluoro-4-methoxyphenyl)-3-(1-methyl-2-pyrrolidinyl)pyridine fumarate] | 58 | 78 | 202 | 3.1 |  | 268 | 0.027
